Results: patent US20080009418A1, “Selective Inhibitors” (Alchemia LTD., priority 2004, published 2008)

What was measured:
[1] = biological target: T1, Human neuropeptide Y (NPY-Y1) (Homo sapiens, UniProt P25929); test: Radioligand binding, human neuropeptide Y NPY-Y1 membranes, FlashPlate, [125I]-PYY; settings: compound at 10 μM; for A9: inhibition of radioligand binding: FlashPlate; for A9 radioligand binding inhibition: human NPY-Y1 membranes
T1 construct: purchased Perkin Elmer Biosignal
T1 sequence (P25929 1-384): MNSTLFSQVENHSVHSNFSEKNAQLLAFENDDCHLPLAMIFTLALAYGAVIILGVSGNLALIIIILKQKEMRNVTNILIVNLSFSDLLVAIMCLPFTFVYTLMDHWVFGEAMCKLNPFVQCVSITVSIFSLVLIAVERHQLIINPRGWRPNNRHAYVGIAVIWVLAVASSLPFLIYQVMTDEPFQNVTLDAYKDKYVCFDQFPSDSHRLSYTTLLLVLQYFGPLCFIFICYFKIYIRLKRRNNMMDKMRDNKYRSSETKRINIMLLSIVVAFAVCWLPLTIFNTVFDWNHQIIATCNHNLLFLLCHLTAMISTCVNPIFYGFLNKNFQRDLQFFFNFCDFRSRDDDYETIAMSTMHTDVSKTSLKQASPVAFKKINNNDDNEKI
How it was run: (§1)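 Cloned human receptor membranes were coated onto FlashPlate wells and incubated with radioligand and compound (added from a 0.5 mM DMSO daughter plate) for 1 hour at room temperature in the dark. Scintillation counting gave percent inhibition, with DMSO defining total and reference ligand defining non-specific binding.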

Human μ-opioid (MOP) = biological target: T2, Human μ-opioid (MOP) (Homo sapiens, UniProt P35372); test: Radioligand binding, human μ-opioid (MOP) membranes, FlashPlate, [3H]-Naloxone; settings: compound at 10 μM; for A7: inhibition of radioligand binding: FlashPlate; for A7 radioligand binding inhibition: human μ-opioid (MOP) membranes
T2 construct: purchased Perkin Elmer Biosignal
How it was run: as §1

[2] = biological target: T3, Human melanin-concentrating hormone (MCH1) (Homo sapiens, UniProt Q99705); test: Radioligand binding, human melanin-concentrating hormone MCH1 membranes, FlashPlate, [125I]-S36057; settings: compound at 10 μM; for A6: inhibition of radioligand binding: [125I]-S36057, FlashPlate; for A6 radioligand binding inhibition: human MCH1 membranes
T3 construct: purchased Perkin Elmer Biosignal
How it was run: as §1

Human neurokinin (NK1) = biological target: T4, Human neurokinin (NK1) (Homo sapiens, UniProt P25103); test: Radioligand binding, human neurokinin NK1 membranes, filtration, [125I]-Substance P; settings: compound at 10 μM; for A8: inhibition of radioligand binding: filtration; for A8 radioligand binding inhibition: human neurokinin NK1 membranes
T4 construct: purchased Perkin Elmer Biosignal
How it was run: (§2)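 Filtration binding on cloned human receptor membranes (1 Unit/well), [125I]-Substance P for NK1 and [3H]-Diprenorphine for KOP, 1 h at room temperature. Filters PEI-presoaked, washed with cold 50 mM Tris-HCl pH 7.4, counted by scintillation; percent inhibition calculated, reference ligand defining non-specific binding.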

Human opioid (ORL1) = biological target: T5, Human opioid (ORL1) (Homo sapiens, UniProt P41146); test: Radioligand binding, human opioid ORL1 membranes, FlashPlate, [125I]-Nociceptin; settings: compound at 10 μM; for A10: inhibition of radioligand binding: FlashPlate; for A10 radioligand binding inhibition: human ORL1 membranes
T5 construct: purchased Perkin Elmer Biosignal
How it was run: as §1

Human δ-opioid (DOP) = biological target: T6, Human δ-opioid (DOP) (Homo sapiens, UniProt P41143); test: Radioligand binding, human δ-opioid (DOP) membranes, FlashPlate, [3H]-Bremazocine; settings: compound at 10 μM; for A1: inhibition of radioligand binding: FlashPlate; for A1 radioligand binding inhibition: human δ-opioid (DOP) membranes
T6 construct: purchased Perkin Elmer Biosignal
How it was run: as §1

Mouse urotensin (mUR2) = biological target: T7, Mouse urotensin (mUR2) (Mus musculus, UniProt Q8VIH9); test: Radioligand binding, mouse urotensin mUR2 membranes, FlashPlate, [125I]-Urotensin II; settings: compound at 10 μM; for A11: inhibition of radioligand binding: FlashPlate; for A11 radioligand binding inhibition: mouse urotensin mUR2 membranes
T7 construct: purchased Perkin Elmer Biosignal
T7 sequence (Q8VIH9 1-385): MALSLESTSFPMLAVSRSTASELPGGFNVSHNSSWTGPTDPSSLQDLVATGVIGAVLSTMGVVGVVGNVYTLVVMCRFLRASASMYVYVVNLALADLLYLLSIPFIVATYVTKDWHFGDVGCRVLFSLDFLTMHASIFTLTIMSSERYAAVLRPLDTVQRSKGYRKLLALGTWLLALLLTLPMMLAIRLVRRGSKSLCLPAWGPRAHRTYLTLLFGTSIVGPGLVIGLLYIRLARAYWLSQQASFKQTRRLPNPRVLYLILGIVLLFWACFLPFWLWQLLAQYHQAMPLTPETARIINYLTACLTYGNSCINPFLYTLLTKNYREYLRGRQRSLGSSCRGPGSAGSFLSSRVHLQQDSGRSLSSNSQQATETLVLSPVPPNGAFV
How it was run: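 Cloned mouse urotensin (mUR2) receptor membranes from Perkin Elmer Biosignal were immobilized in FlashPlate microplates using a proprietary coating. Each well got 19.5 μl buffer, then 0.5 μl of DMSO, reference ligand, or compound. Adding 5 μl of [125I]-Urotensin II, diluted to 5× final concentration in binding buffer, started binding. Plates were sealed with TopSeal-A and incubated 1 hour at room temperature in the dark. Wells were counted for 30 seconds each on a TopCount after a 60-second delay, and percentage inhibition was calculated.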

Human κ-Opioid (KOP) = biological target: T8, Human κ-Opioid (KOP) (Homo sapiens, UniProt P41145); test: Radioligand binding, human κ-opioid (KOP) membranes, filtration, [3H]-Diprenorphine; settings: compound at 10 μM; for A2: inhibition of radioligand binding: filtration; for A2 radioligand binding inhibition: human κ-opioid (KOP) membranes
T8 construct: purchased Perkin Elmer Biosignal
How it was run: as §2

Human melanocortin (MC5) = biological target: T9, Human melanocortin (MC5) (Homo sapiens, UniProt P33032); test: Radioligand binding, human melanocortin MC5 membranes, FlashPlate, [125I]-NDP-αMSH; settings: compound at 10 μM; for A5: inhibition of radioligand binding: FlashPlate; for A5 radioligand binding inhibition: human melanocortin MC5 membranes
T9 construct: purchased Perkin Elmer Biosignal
How it was run: as §1

Human Melanocortin (MC4) = biological target: T10, Human Melanocortin (MC4) (Homo sapiens, UniProt P32245); test: Radioligand binding, human melanocortin MC4 membranes, FlashPlate, [125I]-NDP-αMSH; settings: compound at 10 μM; for A4: inhibition of radioligand binding: FlashPlate; for A4 radioligand binding inhibition: human melanocortin MC4 membranes
T10 construct: purchased Perkin Elmer Biosignal
How it was run: as §1

Human Melanocortin (MC3) = biological target: T11, Human Melanocortin (MC3) (Homo sapiens, UniProt P41968); test: Radioligand binding, human melanocortin MC3 membranes, FlashPlate, [125I]-NDP-αMSH; settings: compound at 10 μM; for A3: inhibition of radioligand binding: FlashPlate; for A3 radioligand binding inhibition: human melanocortin MC3 membranes
T11 construct: purchased Perkin Elmer Biosignal
How it was run: as §1

T2 sequence (P35372 whole entry): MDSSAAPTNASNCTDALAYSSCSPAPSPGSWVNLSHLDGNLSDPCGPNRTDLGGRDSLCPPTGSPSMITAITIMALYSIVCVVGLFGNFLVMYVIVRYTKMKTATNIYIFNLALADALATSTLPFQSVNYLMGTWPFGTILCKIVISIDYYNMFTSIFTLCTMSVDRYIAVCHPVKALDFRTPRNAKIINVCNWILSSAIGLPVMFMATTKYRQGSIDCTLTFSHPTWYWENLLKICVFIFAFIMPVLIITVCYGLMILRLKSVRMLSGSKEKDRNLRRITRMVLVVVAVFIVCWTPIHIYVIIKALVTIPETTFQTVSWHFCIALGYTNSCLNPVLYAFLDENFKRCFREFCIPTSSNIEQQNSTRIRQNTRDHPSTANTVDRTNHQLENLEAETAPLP
T5 sequence (P41146 whole entry): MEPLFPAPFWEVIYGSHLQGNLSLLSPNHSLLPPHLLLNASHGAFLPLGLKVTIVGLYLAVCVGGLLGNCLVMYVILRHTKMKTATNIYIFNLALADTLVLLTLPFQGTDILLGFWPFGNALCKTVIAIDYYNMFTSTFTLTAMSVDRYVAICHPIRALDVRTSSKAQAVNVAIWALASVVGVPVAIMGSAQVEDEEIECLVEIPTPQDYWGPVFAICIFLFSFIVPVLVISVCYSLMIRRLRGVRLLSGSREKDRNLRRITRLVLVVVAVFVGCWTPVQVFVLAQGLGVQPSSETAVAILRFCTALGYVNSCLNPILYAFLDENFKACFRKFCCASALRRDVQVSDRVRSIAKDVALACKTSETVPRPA
T9 sequence (P33032 whole entry): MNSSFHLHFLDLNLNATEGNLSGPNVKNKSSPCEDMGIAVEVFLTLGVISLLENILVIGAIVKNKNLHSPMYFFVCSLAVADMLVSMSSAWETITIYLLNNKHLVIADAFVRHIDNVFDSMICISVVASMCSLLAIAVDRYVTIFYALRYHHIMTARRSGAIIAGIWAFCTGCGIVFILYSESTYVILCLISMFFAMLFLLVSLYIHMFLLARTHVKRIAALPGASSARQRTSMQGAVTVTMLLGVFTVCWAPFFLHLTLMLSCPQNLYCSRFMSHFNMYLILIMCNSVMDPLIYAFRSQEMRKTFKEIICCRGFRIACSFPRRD
T4 sequence (P25103 whole entry): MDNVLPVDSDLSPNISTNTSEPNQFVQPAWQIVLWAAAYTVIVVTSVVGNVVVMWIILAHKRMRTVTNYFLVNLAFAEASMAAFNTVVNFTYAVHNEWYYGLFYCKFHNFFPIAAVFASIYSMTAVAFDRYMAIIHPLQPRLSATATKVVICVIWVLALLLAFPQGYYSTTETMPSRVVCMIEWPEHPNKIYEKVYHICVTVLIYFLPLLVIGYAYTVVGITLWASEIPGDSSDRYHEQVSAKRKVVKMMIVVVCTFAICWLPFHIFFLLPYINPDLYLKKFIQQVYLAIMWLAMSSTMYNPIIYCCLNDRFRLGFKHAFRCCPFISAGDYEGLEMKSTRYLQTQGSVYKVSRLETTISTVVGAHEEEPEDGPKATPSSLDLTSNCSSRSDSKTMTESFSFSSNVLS
T8 sequence (P41145 whole entry): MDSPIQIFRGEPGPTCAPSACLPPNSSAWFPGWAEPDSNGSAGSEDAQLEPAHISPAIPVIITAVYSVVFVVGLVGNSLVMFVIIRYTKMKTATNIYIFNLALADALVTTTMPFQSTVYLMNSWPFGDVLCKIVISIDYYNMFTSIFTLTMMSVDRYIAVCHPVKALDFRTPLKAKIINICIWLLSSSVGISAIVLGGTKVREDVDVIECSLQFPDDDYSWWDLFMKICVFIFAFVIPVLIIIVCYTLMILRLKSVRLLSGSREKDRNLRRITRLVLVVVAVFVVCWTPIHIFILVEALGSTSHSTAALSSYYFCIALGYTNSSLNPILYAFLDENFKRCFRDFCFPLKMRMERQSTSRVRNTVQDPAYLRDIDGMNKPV
T3 sequence (Q99705 whole entry): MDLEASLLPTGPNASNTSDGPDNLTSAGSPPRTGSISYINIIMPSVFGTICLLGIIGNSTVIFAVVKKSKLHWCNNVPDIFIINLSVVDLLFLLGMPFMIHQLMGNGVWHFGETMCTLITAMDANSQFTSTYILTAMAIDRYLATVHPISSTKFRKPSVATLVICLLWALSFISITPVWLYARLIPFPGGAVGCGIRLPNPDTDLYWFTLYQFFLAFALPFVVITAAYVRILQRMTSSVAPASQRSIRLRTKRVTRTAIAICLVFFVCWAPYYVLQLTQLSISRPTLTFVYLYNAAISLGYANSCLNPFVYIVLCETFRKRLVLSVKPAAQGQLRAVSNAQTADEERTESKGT
T10 sequence (P32245 whole entry): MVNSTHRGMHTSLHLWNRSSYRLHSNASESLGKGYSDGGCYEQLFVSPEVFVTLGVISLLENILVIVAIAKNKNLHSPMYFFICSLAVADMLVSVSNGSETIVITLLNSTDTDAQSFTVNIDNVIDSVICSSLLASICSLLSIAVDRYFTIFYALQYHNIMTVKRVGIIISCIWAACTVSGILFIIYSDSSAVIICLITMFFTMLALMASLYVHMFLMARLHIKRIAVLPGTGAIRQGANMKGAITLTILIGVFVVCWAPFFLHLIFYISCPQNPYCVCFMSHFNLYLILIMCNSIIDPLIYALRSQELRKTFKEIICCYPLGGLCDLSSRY
T11 sequence (P41968 whole entry): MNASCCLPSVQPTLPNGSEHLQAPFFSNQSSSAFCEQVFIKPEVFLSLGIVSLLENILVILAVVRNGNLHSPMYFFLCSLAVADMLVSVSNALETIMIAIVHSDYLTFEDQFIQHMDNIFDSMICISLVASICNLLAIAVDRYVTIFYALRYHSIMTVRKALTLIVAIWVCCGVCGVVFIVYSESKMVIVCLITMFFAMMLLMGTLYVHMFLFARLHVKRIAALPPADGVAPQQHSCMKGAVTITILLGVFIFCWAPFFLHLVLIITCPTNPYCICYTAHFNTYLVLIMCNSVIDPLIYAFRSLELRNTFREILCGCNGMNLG
T6 sequence (P41143 whole entry): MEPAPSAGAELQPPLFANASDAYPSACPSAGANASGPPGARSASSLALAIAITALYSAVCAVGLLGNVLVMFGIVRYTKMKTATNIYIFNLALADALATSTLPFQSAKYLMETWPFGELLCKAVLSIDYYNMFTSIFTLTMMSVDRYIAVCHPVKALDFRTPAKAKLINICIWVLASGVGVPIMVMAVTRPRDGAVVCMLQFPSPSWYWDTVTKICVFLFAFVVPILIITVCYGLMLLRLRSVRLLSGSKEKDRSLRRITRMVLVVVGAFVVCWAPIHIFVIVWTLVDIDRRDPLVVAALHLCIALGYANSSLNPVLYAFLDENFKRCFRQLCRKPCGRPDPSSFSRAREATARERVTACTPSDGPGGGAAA

SMILES	A9: inhibition of radioligand binding ([1]; [125I]-PYY)	A7: inhibition of radioligand binding (Human μ-opioid (MOP); [3H]-Naloxone)	A6: inhibition of radioligand binding [2]	A8: inhibition of radioligand binding (Human neurokinin (NK1); [125I]-Substance P)	A10: inhibition of radioligand binding (Human opioid (ORL1); [125I]-Nociceptin)	A1: inhibition of radioligand binding (Human δ-opioid (DOP); [3H]-Bremazocine)	A11: inhibition of radioligand binding (Mouse urotensin (mUR2); [125I]-Urotensin II)	A2: inhibition of radioligand binding (Human κ-Opioid (KOP); [3H]-Diprenorphine)	A5: inhibition of radioligand binding (Human melanocortin (MC5); [125I]-NDP-αMSH)	A9 radioligand binding inhibition [1]	A7 radioligand binding inhibition (Human μ-opioid (MOP))	A6 radioligand binding inhibition [2]	A8 radioligand binding inhibition (Human neurokinin (NK1))	A10 radioligand binding inhibition (Human opioid (ORL1))	A1 radioligand binding inhibition (Human δ-opioid (DOP))	A11 radioligand binding inhibition (Mouse urotensin (mUR2))	A2 radioligand binding inhibition (Human κ-Opioid (KOP))	A5 radioligand binding inhibition (Human melanocortin (MC5))	A4 radioligand binding inhibition (Human Melanocortin (MC4))	A3 radioligand binding inhibition (Human Melanocortin (MC3))	further results
COCC1OC(OCc2ccc(Cl)cc2)C(NC(=O)CCCNC(=N)N)C(OCc2ccccc2)C1O (stereo not drawn) [compound 198]	− (“−” indicates less than 50% inhibition at 10 μM)	− (“−” indicates less than 50% inhibition at 10 μM)	− (“−” indicates less than 50% inhibition at 10 μM)	+ (“+” indicates greater than 50% inhibition at 10 μM)	− (“−” indicates less than 50% inhibition at 10 μM)	− (“−” indicates less than 50% inhibition at 10 μM)	− (“−” indicates less than 50% inhibition at 10 μM)	− (“−” indicates less than 50% inhibition at 10 μM)	+ (“+” indicates greater than 50% inhibition at 10 μM)												A4: inhibition of radioligand binding (Human Melanocortin (MC4); [125I]-NDP-αMSH): − (“−” indicates less than 50% inhibition at 10 μM); A3: inhibition of radioligand binding (Human Melanocortin (MC3); [125I]-NDP-αMSH): − (“−” indicates less than 50% inhibition at 10 μM)
CSC1O[C@H](COCc2ccc(Cl)cc2)[C@@H](O)[C@@H](OCc2ccc(Cl)cc2)[C@H]1NC(=O)CCCN (stereo partly drawn) [compound 273]	− (“−” indicates less than 50% inhibition at 10 μM)	− (“−” indicates less than 50% inhibition at 10 μM)	− (“−” indicates less than 50% inhibition at 10 μM)	+ (“+” indicates greater than 50% inhibition at 10 μM)	− (“−” indicates less than 50% inhibition at 10 μM)	− (“−” indicates less than 50% inhibition at 10 μM)	− (“−” indicates less than 50% inhibition at 10 μM)	− (“−” indicates less than 50% inhibition at 10 μM)	− (“−” indicates less than 50% inhibition at 10 μM)												A4: inhibition of radioligand binding (Human Melanocortin (MC4); [125I]-NDP-αMSH): − (“−” indicates less than 50% inhibition at 10 μM); A3: inhibition of radioligand binding (Human Melanocortin (MC3); [125I]-NDP-αMSH): − (“−” indicates less than 50% inhibition at 10 μM)
CO[C@H]1[C@H](O)[C@@H](COCc2ccccc2)OC(OCc2ccc(-c3ccccc3)cc2)[C@@H]1NC(=O)CCNC(=N)N (stereo partly drawn) [compound 59]										− (“−” indicates less than 50% inhibition at 10 μM)	+ (“+” indicates greater than 50% inhibition at 10 μM)	− (“−” indicates less than 50% inhibition at 10 μM)	+ (“+” indicates greater than 50% inhibition at 10 μM)	− (“−” indicates less than 50% inhibition at 10 μM)	− (“−” indicates less than 50% inhibition at 10 μM)	− (“−” indicates less than 50% inhibition at 10 μM)	+ (“+” indicates greater than 50% inhibition at 10 μM)	+ (“+” indicates greater than 50% inhibition at 10 μM)	− (“−” indicates less than 50% inhibition at 10 μM)	− (“−” indicates less than 50% inhibition at 10 μM)	
COC[C@H]1OC(OCc2cccc(O)c2)[C@H](NC(=O)CCCNC(=N)N)[C@@H](OCc2ccc(-c3ccccc3)cc2)[C@@H]1O (stereo partly drawn) [compound 144]																					A9 radioligand binding, percentage inhibition ([1]; [125I]-PYY): − (“−” indicates less than 50% inhibition at 10 μM); A7 radioligand binding, percentage inhibition (Human μ-opioid (MOP); [3H]-Naloxone): + (“+” indicates greater than 50% inhibition at 10 μM); A6 radioligand binding, percentage inhibition ([2]; [125I]-S36057): + (“+” indicates greater than 50% inhibition at 10 μM); A8 radioligand binding, percentage inhibition (Human neurokinin (NK1); [125I]-Substance P): + (“+” indicates greater than 50% inhibition at 10 μM); A10 radioligand binding, percentage inhibition (Human opioid (ORL1); [125I]-Nociceptin): − (“−” indicates less than 50% inhibition at 10 μM); A1 radioligand binding, percentage inhibition (Human δ-opioid (DOP); [3H]-Bremazocine): − (“−” indicates less than 50% inhibition at 10 μM); A11 radioligand binding, percentage inhibition (Mouse urotensin (mUR2); [125I]-Urotensin II): − (“−” indicates less than 50% inhibition at 10 μM); A2 radioligand binding, percentage inhibition (Human κ-Opioid (KOP); [3H]-Diprenorphine): − (“−” indicates less than 50% inhibition at 10 μM); A5 radioligand binding, percentage inhibition (Human melanocortin (MC5); [125I]-NDP-αMSH): + (“+” indicates greater than 50% inhibition at 10 μM); A4 radioligand binding, percentage inhibition (Human Melanocortin (MC4); [125I]-NDP-αMSH): − (“−” indicates less than 50% inhibition at 10 μM); A3 radioligand binding, percentage inhibition (Human Melanocortin (MC3); [125I]-NDP-αMSH): − (“−” indicates less than 50% inhibition at 10 μM)
CO[C@H]1[C@H](O)[C@@H](COCc2ccc3ccccc3c2)OC(OCc2ccccc2)[C@@H]1NC(=O)CCNC(=N)N (stereo partly drawn) [compound 87]										− (“−” indicates less than 50% inhibition at 10 μM)	− (“−” indicates less than 50% inhibition at 10 μM)	− (“−” indicates less than 50% inhibition at 10 μM)	+ (“+” indicates greater than 50% inhibition at 10 μM)	− (“−” indicates less than 50% inhibition at 10 μM)	− (“−” indicates less than 50% inhibition at 10 μM)	− (“−” indicates less than 50% inhibition at 10 μM)	− (“−” indicates less than 50% inhibition at 10 μM)	− (“−” indicates less than 50% inhibition at 10 μM)	− (“−” indicates less than 50% inhibition at 10 μM)	− (“−” indicates less than 50% inhibition at 10 μM)	
CO[C@H]1[C@H](O)[C@@H](COCc2ccccc2)OC(OCc2ccc3ccccc3c2)[C@@H]1NC(=O)CCNC(=N)N (stereo partly drawn) [compound 75]										− (“−” indicates less than 50% inhibition at 10 μM)	+ (“+” indicates greater than 50% inhibition at 10 μM)	− (“−” indicates less than 50% inhibition at 10 μM)	+ (“+” indicates greater than 50% inhibition at 10 μM)	− (“−” indicates less than 50% inhibition at 10 μM)	− (“−” indicates less than 50% inhibition at 10 μM)	− (“−” indicates less than 50% inhibition at 10 μM)	− (“−” indicates less than 50% inhibition at 10 μM)	− (“−” indicates less than 50% inhibition at 10 μM)	− (“−” indicates less than 50% inhibition at 10 μM)	− (“−” indicates less than 50% inhibition at 10 μM)	
